Measured values as given in patent publication US10508168B2, “Thermoplastic polymer, method of preparing thermoplastic polymer, and thermoplastic polymer composition including thermoplastic polymer” (LG CHEM, LTD., priority 2015, dated 2019).

Experiment: TGA test of thermal stability of emulsifier fatty acids
Type: physicochemical
Conditions: for Temperature at which loss of 5% by weight (w/w) occurs / Temperature at which loss of 50% by weight (w/w) occurs: Table 2; for Thermal stability (TGA comparison): result in words
Source text: The present inventors first performed a process of selecting emulsifier candidates to substitute for a conventionally used fatty acid-based emulsifier so as to change the emulsifier among the aforementioned materials, and then selected an emulsifier having relatively high thermal stability through a boiling point test and a TGA test in accordance with the purpose of the present invention of reducing the amount of gas generated in high-temperature extrusion and injection-molding processes.
FIG. 2 illustrates TGA test comparison results of hydrogenated ricinoleic acid as a chain-type fatty acid including a functional group according to the present invention, stearic acid as saturated fatty acid not including a branch group or a functional group, and fatty acid (FAD acid: mixture of palmitic acid, oleic acid, and stearic acid) included in a conventionally used fatty acid-based emulsifier.

Temperature at which loss of 5% by weight (w/w) occurs (TGA) [°C] | Temperature at which loss of 50% by weight (w/w) occurs (TGA) [°C] | Thermal stability (TGA comparison) | Loss amount at 270° C. (TGA, 270° C., Table 1) [% by weight] | Temperature at which loss of 10% by weight occurs (TGA, Table 1) [° ° C.] | SMILES
263 | 455 | superior to stearic acid and fatty acid | – | – | CCCCCCC(O)CCCCCCCCCCC(=O)O (centres unmarked) [Hydrogenated ricinoleic acid, 12-hydroxy octadecanoic acid]
– | – | superior to fatty acid | 9 | 273 | CCCCCC[C@@H](O)C/C=C\CCCCCCCC(=O)O [Ricinoleic acid, ricinoleic acid]
237 | 289 | – | – | – | CCCCCCCCCCCCCCCCCC(=O)O [Stearic acid, stearic acid, reference compound]
